These results are taken from patent US4128666A, “4 AND 5-Halo substituted 2-indanamine compounds” (SmithKline Corporation, priority 1977, dated 1978).

In test [1] the target is phenylethanolamine N-methyltransferase. The experiment in a line: inhibition of phenylethanolamine N-methyltransferase in vitro. The following applies: for Ki: enzyme inhibition dissociation constant, calculated according to Chou. Format: biochemical. Here is the method:
Chem. Path. Pharm. 17:201-213, 1977, at various compound concentrations. From the data received, the enzyme inhibition dissociation constants (Ki values) were calculated according to mathematical procedures described by Chou, Mol. Pharm. 10:235-247, 1974.
The Ki value of a preferred compound of this invention, 4,5-dichloro-2-indanamine, was compared with other closely related compounds.

Test [2] concerns adrenal epinephrine/norepinephrine ratio. The experiment in a line: in vivo adrenal epinephrine/norepinephrine ratio in mice (PNMT inhibition). The following applies: for E/NE Ratio: male mice, 50 mg/kg p.o. daily dose, seven days, n = 5. Here is the method: Male mice were dosed orally with either drug or vehicle control on a twice-a-day basis for seven consecutive days.
On the morning of the next day they were again dosed with two hours later sacrificed by decapitation. The adrenal glands were then removed and analyzed fluorometrically for both epinephrine and norepinephrine content.

Where [3] appears, read: Experiment 1, control 2.6 ± .1, ^b (SK & F 82566) significantly different from control, p <.001.

Bounds are passed on as bounds.

In the case of `NC1Cc2ccccc2C1` [SK & F 8851], the inhibition constant (Ki) (commonly a measure of affinity in units of concentration, obtained from inhibition or displacement) in test [1] was 10000 nM. Further, in test [2] (setting [3]), the “E/NE Ratio” value was 2.4.
As to `NC1CCc2c1ccc(Cl)c2Cl` (centres unmarked) [SK & F 82520], the Ki in test [1] was 400 nM. The “E/NE Ratio” value in test [2] (Experiment 2, control 2.0 ± .05) is 1.8.
Turning to `NC1Cc2ccc(Cl)c(Cl)c2C1` (centres unmarked) [SK & F 82566, 4,5-dichloro-2-indanamine], the “potency of inhibition (in words)” value in test [1] (compared with the other compounds of Table I) is recorded as “much more potent inhibitor than the other compounds”. For the same compound, the Ki in test [1] was 20 nM. Moreover, the “E/NE Ratio” value in test [2] (setting [3]) stood at 1.1. The “lowering of adrenal epinephrine/norepinephrine ratio (in words)” value in test [2] (only this compound, under the conditions of this study) is given as “significantly lowered the adrenal epinephrine/norepinephrine ratio”.
With `NC1Cc2cc(Cl)c(Cl)cc2C1` [SK & F 50070], the Ki in test [1] is 1000 nM. The “E/NE Ratio” value in test [2] (setting [3]) is listed as 2.2.
As for `NC1CCc2ccc(Cl)c(Cl)c21` (centres unmarked) [SK & F 82570], in test [1], the Ki is over 1000 nM.
